Melting point and MIC data for 6 molecules are collected here from US6897230B2, “Bicyclo[3/1/0] hexane containing oxazolidinone antibiotics and derivatives thereof” (Kyorin Pharmaceutical Co., Ltd., priority 2001, dated 2005).

In general, melting point refers to the temperature of the solid-liquid transition. The term MIC denotes the least concentration at which growth counts as inhibited. Low readings indicate greater potency, high ones weaker potency.

Data set [1] deals with Enterococcus faecium VRQR (vancomycin resistant, quinolone resistant). In words: MIC, agar dilution method. The class given is cell-based. Particulars: Mueller-Hinton agar with 5% defibrinated horse blood, 5% CO2, 24 hours. As to the method: (§1) The following in vitro results were obtained based on an agar dilution method except for C. pneumoniae. The activity is presented as the minimum inhibitory concentration (MIC).
(§2) Streptococci and enterococci were tested on Mueller-Hinton agar supplemented with 5% defibrinated horse blood, using an approximate inoculum of 1×10^4 cfu/spot an incubation temperature of 35° C. in an atmosphere of 5% CO2 for 24 hours. The MIC was defined as the lowest concentration at which no visible bacterial growth was observed.

Data set [2] relates to Streptococcus pneumoniae PRQR (penicillin resistant, quinolone resistant). In words: MIC, agar dilution method. The class given is cell-based. Conditions: Mueller-Hinton agar with 5% defibrinated horse blood, 5% CO2, 24 hours. The procedure:
as §1, §2
(In agar dilution, organisms are placed on agar that contains the substance at set levels.)

Data set [3] relates to Streptococcus pyogenes IID692. In words: MIC, agar dilution method. In kind it is cell-based. Particulars: Mueller-Hinton agar with 5% defibrinated horse blood, 5% CO2, 24 hours. The procedure:
as §1, §2

The subject of data set [4] is Streptococcus pneumoniae IID553. In words: MIC, agar dilution method. In kind it is cell-based. Conditions: Mueller-Hinton agar with 5% defibrinated horse blood, 5% CO2, 24 hours. The procedure:
as §1, §2

Data set [5] relates to Chlamydia pneumoniae ATCC VR-1360. In words: MIC, inclusion formation in infected HeLa 229 cells. The class given is cell-based. Conditions: ATCCVR1360, 72 hours, lowest concentration with no inclusion. As to the method: as §1
C. pneumoniae was tested using minimum essential medium supplemented with 10% heat-inactivated fetal bovine serum, 2 mM L-glutamine, […] cycloheximide and non essential amino acid. HeLa 229 cells were inoculated with 10^4 inclusion-forming units of C. pneumoniae strain per mL. Infected cells were incubated with test compounds in complete medium at 35C in an atmosphere of 5% CO2 for 72 hours. […] The MIC was defined as the lowest concentration at which no inclusion was observed.

For data set [6], the system named is Staphylococcus aureus Smith. In words: MIC, agar dilution method. In kind it is cell-based. Particulars: Mueller-Hinton agar, 35 C, 24 hours. As to the method: as §1
(§3) S. aureus and M. catarrhalis were tested on Mueller-Hinton agar, using an approximate inoculum of 1×10^4 cfu/spot an incubation temperature of 35 C. for 24 hours. The MIC was defined as the lowest concentration at which no visible bacterial growth was observed.

In data set [7] the test system is Staphylococcus aureus CR (chloramphenicol resistant). In words: MIC, agar dilution method. Conditions: Mueller-Hinton agar, 35 C, 24 hours. In kind it is cell-based. The procedure: as §1, §3
Data set [8] relates to Staphylococcus aureus MR (methicillin resistant). In words: MIC, agar dilution method. Conditions: Mueller-Hinton agar, 35 C, 24 hours. The class given is cell-based. As to the method: as §1, §3
Data set [9] has as its system Moraxella catarrhalis ATCC25238. In words: MIC, agar dilution method. In kind it is cell-based. Particulars: Mueller-Hinton agar, 35 C, 24 hours. As to the method: as §1, §3

Molecules are shown by their SMILES. In brackets after ≈: the same amount, converted by molar mass. Where a name gives a salt, the structure may show the parent alone.

`CC(=O)NC[C@H]1CN(c2ccc(C3=C[C@@H]4[C@@H](N)[C@@H]4C3)c(F)c2)C(=O)O1` (as salt: hydrochloride) [Example 50, N-[5(S)-3-[4-[(1α,5α,6α)-6-Aminobicyclo[3.1.0]hex-2-en-3-yl]-3-fluorophenyl]-2-oxooxazolidin-5-ylmethyl]acetamide Hydrochloride] returned a melting point of 215 to 220 °C.

For `CC(=O)NC[C@H]1CN(c2ccc(N3C[C@@H]4[C@@H](N)[C@@H]4C3)c(F)c2)C(=O)O1` [Example 8, N-[5(S)-3-[4-[(1α,5α,6α)-6-Amino-3-azabicyclo[3.1.0]hexan-3-yl]-3-fluorophenyl]-2-oxooxazolidin-5-ylmethyl]acetamide], the MIC in data set [1] came out at 2 µg/mL (≈ 5.74 µM); in [2], 1 µg/mL (≈ 2.87 µM); in [3], 0.5 µg/mL (≈ 1.44 µM); in data set [4], 1 µg/mL (≈ 2.87 µM); in data set [5], 0.5 µg/mL (≈ 1.44 µM); in [6], 0.5 µg/mL (≈ 1.44 µM). For the same molecule, the figures for the MIC in [7] and in data set [8] were 4 µg/mL (≈ 11.5 µM) and 1 µg/mL (≈ 2.87 µM), respectively.

For `CC(=O)NC[C@H]1CN(c2ccc(N3C[C@@H]4[C@@H](C=O)[C@@H]4C3)c(F)c2)C(=O)O1` [Example 22, N-[5(S)-3-[3-Fluoro-4-[(1α,5α,6α)-6-formyl-3-azabicyclo[3.1.0]hexan-3-yl]phenyl]-2-oxooxazolidin-5-ylmethyl]acetamide], the MIC turned out to be 0.5 µg/mL (≈ 1.38 µM) in data set [1]; 0.5 µg/mL (≈ 1.38 µM) in [2]; 0.5 µg/mL (≈ 1.38 µM) in data set [3]; 0.5 µg/mL (≈ 1.38 µM) in data set [4]; 0.06 µg/mL (≈ 0.166 µM) in data set [6]; 0.5 µg/mL (≈ 1.38 µM) in data set [7]. Besides, the MIC in data set [9] came out at 2 µg/mL (≈ 5.53 µM); in data set [8] it was 0.016 µg/mL (≈ 0.0443 µM).

In the case of `CC(=O)NC[C@H]1CN(c2ccc(N3C[C@@H]4[C@@H](/C=N/O)[C@@H]4C3)c(F)c2)C(=O)O1` [Example 41, (E)-N-[5(S)-3-[3-Fluoro-4-[(1α,5α,6α)-6-[(hydroxyimino)methyl]-3-azabicyclo[3.1.0]hexan-3-yl]phenyl]-2-oxooxazolidin-5-ylmethyl]acetamide], the MIC in data set [1] is 0.5 µg/mL (≈ 1.33 µM); in data set [2], 0.5 µg/mL (≈ 1.33 µM); in [3] it was 0.5 µg/mL (≈ 1.33 µM); in data set [4] it was 0.5 µg/mL (≈ 1.33 µM); in data set [6], 0.06 µg/mL (≈ 0.159 µM); in data set [7], 0.5 µg/mL (≈ 1.33 µM). Besides, the MIC in data set [9] is 4 µg/mL (≈ 10.6 µM); in data set [8], 0.06 µg/mL (≈ 0.159 µM).

As to `CC(=O)NC[C@H]1CN(c2ccc(N3C[C@@H]4[C@@H](C#N)[C@@H]4C3)c(F)c2)C(=O)O1` [Example 46, N-[5(S)-3-[4-[(1α,5α,6α)-6-Cyano-3-azabicyclo[3.1.0]hexan-3-yl]-3-fluorophenyl]-2-oxooxazolidin-5-ylmethyl]acetamide], the MIC came out at 0.5 µg/mL (≈ 1.4 µM) in [1]; 0.25 µg/mL (≈ 0.698 µM) in data set [2]; 0.25 µg/mL (≈ 0.698 µM) in data set [3]; 0.5 µg/mL (≈ 1.4 µM) in [4]; 0.25 µg/mL (≈ 0.698 µM) in data set [6]; 1 µg/mL (≈ 2.79 µM) in [7]. For the same molecule, the MIC in data set [9] turned out to be 2 µg/mL (≈ 5.58 µM); in data set [8] it was 0.25 µg/mL (≈ 0.698 µM).

On to `CC(=O)NC[C@H]1CN(c2ccc(N3CCOCC3)c(F)c2)C(=O)O1` [Linezolid, reference compound], for which the MIC in data set [1] came to 2 µg/mL (≈ 5.93 µM); in data set [2], 1 µg/mL (≈ 2.96 µM); in data set [3], 1 µg/mL (≈ 2.96 µM); in data set [4], 2 µg/mL (≈ 5.93 µM); in data set [5] it was 8 µg/mL (≈ 23.7 µM); in [6] it was 1 µg/mL (≈ 2.96 µM). Also, the results for the minimal inhibitory concentration (MIC) in data set [7], in data set [9] and in [8] were 16 µg/mL (≈ 47.4 µM), 4 µg/mL (≈ 11.9 µM) and 1 µg/mL (≈ 2.96 µM), respectively.
